pIC50, pKi: −log10 of the molar value. Where two headings read alike, the source gives them in different places.
Experiments:
Type in all cases: cell-based
[1] = target: T1, human SGLT2 (Homo sapiens, UniProt P31639); assay: SGLT activity (membrane translocation) by fluorescence resonance energy transfer (FRET); details: for transport through hSGLT2 (FRET): result in words; for fluorescence ratios: hSGLT2 in CHO cells, 10 µm thioglucoside, normalized to non-transfected CHO cells, ratio higher than 1 = transported, n=16
T1 construct: expressed in transfected cells; host or cells: CHO (Chinese hamster ovary) cells, stably transfected
T1 sequence (P31639 1-672): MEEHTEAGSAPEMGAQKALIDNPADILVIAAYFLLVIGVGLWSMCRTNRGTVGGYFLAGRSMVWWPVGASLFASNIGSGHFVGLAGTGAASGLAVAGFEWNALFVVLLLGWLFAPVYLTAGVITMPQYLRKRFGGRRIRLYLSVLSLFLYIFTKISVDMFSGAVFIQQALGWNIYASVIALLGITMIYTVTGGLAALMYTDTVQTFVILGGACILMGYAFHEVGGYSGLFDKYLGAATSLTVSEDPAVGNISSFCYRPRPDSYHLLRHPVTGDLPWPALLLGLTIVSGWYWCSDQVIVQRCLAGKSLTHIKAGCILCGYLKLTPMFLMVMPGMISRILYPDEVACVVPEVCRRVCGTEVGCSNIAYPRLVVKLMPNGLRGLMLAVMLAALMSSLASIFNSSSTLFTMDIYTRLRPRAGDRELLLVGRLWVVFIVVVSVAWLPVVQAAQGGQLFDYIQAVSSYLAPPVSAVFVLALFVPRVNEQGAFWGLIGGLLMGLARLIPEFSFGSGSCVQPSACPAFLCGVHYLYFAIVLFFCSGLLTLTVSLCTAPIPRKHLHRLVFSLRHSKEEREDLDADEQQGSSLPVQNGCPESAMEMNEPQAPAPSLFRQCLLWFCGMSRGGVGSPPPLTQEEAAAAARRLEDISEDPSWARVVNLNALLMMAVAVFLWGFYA
Protocol: (§1) Stable transfected Chinese hamster ovary (CHO) cells that express human SGLT1 or human SGLT2 were seeded at a concentration of […] and maintained in culture for 2 days to allow the cells to form a confluent monolayer culture. For transport studies cells were seeded in 96-well microtiter scintiplates (PerkinElmer, Weisbaden, German). For fluorescence resonance energy transfer (FRET) analysis cells were seeded in flat-bottom, poly-D-lysine black-wall, clear bottom, 96-well plates (Becton Dickinson; Heidelberg, Germany).
(§2) SGLT activity, as indicated by membrane translocation, was assessed using fluorescence resonance energy transfer (FRET). Cells were incubated for 48 hours ar 37°C in a 5% CO2 atmosphere in growth medium. Cells were washed with 0.2 ml Dulbecco's phosphate-buffered saline (Invitrogen, Karlsruhe, Germany) and then incubated with 0.1 ml of a solution containing 5 µm CC2-DMPE and 0.02% pluronic acid in PBS. After incubation in the dark for 30 min at 25°C, cells were washed twice with 0.2 ml PBS. Afterwards, cells were incubated in the dark at 25°C for 30 minutes with 0.1 ml of a solution containing […] DiSBAC2(3). A t the end of the incubation period 1 mM of each thioglucoside was added and excited by 390 nm. Fluorescence emission was recorded at 460 and 580 nm. After a 20 second baseline reading, 0.1 ml of PBS containing 10 µM of each compound was added, and the fluorescence was calculated as the ratio F/F0 = [(A460/A580)/(I460/I580)] where A and I represent the reading after or before addition of each thioglucoside, respectively. For I, the readings form 2-5 seconds were averaged; and for A, readings from 3 seconds after the signal that had reached a plateau level (usually within 2-5 seconds) were also averaged. FRET values were expressed as relative fluorescence units (RFU).
(§3) The activity of the sodium-dependent D-glucose cotransport system was studied by changes in membrane potential induced by each of the eight thioglucosides (see Table 1) (10 µm). FRET values were normalized using the fluorescence signal obtained from non-transfected CHO cells.

[2] = target: T2, human SGLT1 (Homo sapiens, UniProt P13866); assay: as above; details: for transport through hSGLT1 (FRET): result in words; for fluorescence signal ratios: hSGLT1 in CHO cells, 10 µm thioglucoside, normalized to non-transfected CHO cells, ratio higher than 1 = transported, n=16
T2 construct: expressed in transfected cells; host or cells: CHO (Chinese hamster ovary) cells, stably transfected
T2 sequence (P13866 1-664): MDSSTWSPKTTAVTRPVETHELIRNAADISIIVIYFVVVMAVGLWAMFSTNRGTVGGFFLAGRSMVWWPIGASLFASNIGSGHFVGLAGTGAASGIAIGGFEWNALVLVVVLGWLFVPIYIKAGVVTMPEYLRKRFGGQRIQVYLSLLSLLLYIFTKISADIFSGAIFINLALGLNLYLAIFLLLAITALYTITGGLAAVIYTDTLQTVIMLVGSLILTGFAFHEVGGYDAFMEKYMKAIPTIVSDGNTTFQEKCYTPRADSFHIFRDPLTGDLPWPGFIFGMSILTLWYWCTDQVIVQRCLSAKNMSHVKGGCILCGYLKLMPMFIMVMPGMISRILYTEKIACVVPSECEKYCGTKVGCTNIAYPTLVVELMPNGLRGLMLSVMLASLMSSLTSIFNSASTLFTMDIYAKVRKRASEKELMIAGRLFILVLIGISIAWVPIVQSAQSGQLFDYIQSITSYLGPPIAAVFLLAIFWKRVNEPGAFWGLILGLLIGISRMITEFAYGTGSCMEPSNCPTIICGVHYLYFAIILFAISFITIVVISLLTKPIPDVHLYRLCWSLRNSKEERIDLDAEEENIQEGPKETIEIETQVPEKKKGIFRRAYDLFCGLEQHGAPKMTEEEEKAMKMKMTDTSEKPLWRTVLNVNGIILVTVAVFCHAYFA
Protocol: as §1, §2, §3

[3] = target: T1, human SGLT2; assay: Inhibition of sodium-dependent D-glucose transport, [14C]AMG-uptake; details: hSGLT2; for pKi: apparent inhibitory constant, Dixon plot
Protocol: as §1
(§4) Sodium-dependent D-glucose transport was determined by means of α-methyl [^14C]D-glucopyranoside ([^14C]AMG, spec. Radioactivity 300 mCi/mmol) purchased from NEN (Bad Homburg, Germany). For the purpose of this study, Krebs-Ringer-Henseleit (KRH) solution containing 120 mM NaCl, 4.7 mM KCI, 1.2 mM MgCl2, 2.2 mM CaCl2, 10 mM Hepes (pH 7.4 with Tris) was used to assess sodium-dependent D-glucose transport. For sodium free conditions, KRH solution containing 120 mM N-methyl-glucamine (NMG) instead of NaCl (Na^+) was used to assess sodium-independent D-glucose transport. All chemicals were purchased from Sigma (Deisenhof, Germany).
(§5) Briefly, cells were rinsed three times with 200 µl KRH-Na^+ or KRH-NMG. Then, 100 µl per well of transport buffer containing KRH-NA^+ or KRH-NMG plus [^14C]AMG (0.1 µCi/µl) were added and incubated for 1 hour. […] Then, the cells were solubilized by adding 100 µl of ATPlite substrate solution (PerkinElmer, Boston, USA) and luminescence ATP detection was assessed using a MicroBeta Trilux (PerkinElmer). A standard curve was used to determine the amount of ATP as mg of protein. After 24 hours the microtiter plate was taken for scintillation counting of radioactive [^14C]AMG-uptake using a MicroBeta Trilux (PerkinElmer). Subsequently, the mean counts per minute (cpm) were calculated and converted to […] (pmol). The obtained radioactive counts were expressed as pmol/mg/hour. Sodium-dependent [14C]AMG-uptake was calculated by subtracting uptake under sodium-free conditions from the uptake obtained in the presence of sodium.
(§6) The inhibitory effect on SGLT transport was also analyzed by IC50 values. Dixon plot analysis was used for both estimation of the inhibition constant (Ki) and for identification of the mechanism of enzyme inhibition. Ki was determined by the point of intersection of two different substrate concentrations. Plots of the reciprocal of rate of metabolite formation (1/Rate) versus inhibitor concentration at each substrate concentration were prepared.

[4] = target: T2, human SGLT1; assay: as above; details: for pKi: apparent inhibitory constant, Dixon plot; for inhibitory effect, hSGLT1 compared with hSGLT2: [14C]AMG-uptake, 10µM, n=16, p<0.001, result in words
Protocol: as §1, §4, §5, §6

| SMILES | transport through hSGLT2 (FRET) [1] | fluorescence ratios [1] | transport through hSGLT1 (FRET) [2] | fluorescence signal ratios [2] | pIC50 [3] | inhibition at 10 µM ([3]; 10µM, n=16) | pKi [3] | pIC50 [4] | pKi ([4]; Ki, hSGLT1) | inhibitory effect, hSGLT1 compared with hSGLT2 [4] | pKi ([4]; hSGLT1, read-out: Ki) | pIC50 ([4]; hSGLT1, read-out: IC50) | inhibition at 10 µM ([4]; read-out: [14C]AMG-uptake, % inhibition) |
| --- | --- | --- | --- | --- | --- | --- | --- | --- | --- | --- | --- | --- | --- |
| Cc1ccc(S[C@@H]2O[C@H](CO)[C@@H](O)[C@H](O)[C@H]2O)cc1 [Thioglucoside 7, p-Tolyl-1'-thio-β-D-glucopyranoside] | significantly transported | 4.22 | significantly transported | 2.64 | 4.49 | > 70% | 3.76 | 4.28 | 4.64 |  |  |  |  |
| C/C(=C\CC/C(C)=C/CS[C@@H]1O[C@H](CO)[C@@H](O)[C@H](O)[C@H]1O)CO [Thioglucoside 1, 8-Hydroxygeranol-1'-thio-β-D-glucopyranoside] | not transported |  | not transported |  | 4.92 |  | 7.52 |  |  | stronger for hSGLT1 | 7.00 | 4.46 |  |
| OCc1ccccc1S[C@@H]1O[C@H](CO)[C@@H](O)[C@H](O)[C@H]1O [Thioglucoside 2, 2-Hydroxymethyl-phenyl-1'-thio-β-D-glucopyranoside] | not transported |  | not transported |  | 5.05 |  | 8.00 | 4.39 | 3.42 | stronger for hSGLT1 |  |  |  |
| OCc1ccccc1S[C@@H]1O[C@H](CO)[C@H](O)[C@H](O)[C@H]1O [Thioglucoside 6, 2-Hydroxymethyl-phenyl-1'-thio-β-D-galactopyranoside] |  | 1.32 |  |  | 4.82 |  | 8.00 | 3.92 | 3.85 |  |  |  |  |
| Cc1ccccc1S[C@@H]1O[C@H](CO)[C@@H](O)[C@H](O)[C@H]1O [Thioglucoside 4, o-Tolyl-1'-thio-β-D-glucopyranoside] | significantly transported | 1.63 | significantly transported |  | 4.74 |  | 3.88 | 4.52 | 6.55 | stronger for hSGLT1 |  |  | > 70% |
| OC[C@H]1O[C@@H](Sc2ccccc2)[C@H](O)[C@@H](O)[C@@H]1O [Thioglucoside 3, Phenyl-1'-thio-β-D-glucopyranoside] | significantly transported | 1.21 | significantly transported | 1.15 | 4.80 |  | 3.87 | 5.40 | 7.10 | stronger for hSGLT1 |  |  |  |
| Cc1cccc(S[C@@H]2O[C@H](CO)[C@@H](O)[C@H](O)[C@H]2O)c1 [Thioglucoside 8, m-Tolyl-1'-thio-β-D-glucopyranoside] | not transported |  | not transported |  | 4.96 |  | 7.70 | 4.40 | 6.77 |  |  |  |  |
| O=C(CCc1ccc(O)cc1)c1c(O)cc(O)cc1O[C@@H]1O[C@H](CO)[C@@H](O)[C@H](O)[C@H]1O [phlorizin, reference compound] | not transported |  |  |  |  |  |  |  |  |  |  |  |  |
| OCc1cccc(S[C@@H]2O[C@H](CO)[C@@H](O)[C@H](O)[C@H]2O)c1 [Thioglucoside 5, 3-Hydroxymethyl-phenyl-1'-thio-β-D-glucopyranoside] |  |  |  | 1.01 | 4.92 |  | 7.70 | 4.33 | 6.92 |  |  |  |  |

Reference: patent EP1854806A1, “Thioglycosides as pharmaceutically active agents” (MPG Max-Planck-Gesellschaft zur Förderung der …, priority 2006, dated 2007)
